Numbers after ± are expanded uncertainties.
Experiments:
[1] = refractive index (Na D-line) (dimensionless); xn = mol fraction of the nth substance listed; conditions: 101 kPa, Liquid, Standard Abbe refractometry
[2] = xn = mol fraction of the nth substance listed; conditions: 101 kPa, Liquid; for speed of sound: Pulse-echo method

CC1CCCCC1 [methylcyclohexane] + Cc1ccc(C)cc1
Conditions	mass density, [2] [kg/m3]	refractive index, [1]	speed of sound, [2] [m/s]
298.15 K, x1 = 0.0513	851.4 ± 0.5	1.48906 ± 0.001	1303 ± 2
298.15 K, x1 = 0.0979	846.7 ± 0.5	1.48531 ± 0.0011	1297 ± 2
298.15 K, x1 = 0.1917	837.2 ± 0.5	1.47789 ± 0.0011	1285 ± 2
298.15 K, x1 = 0.3009	826.5 ± 0.5	1.46944 ± 0.0011	1272 ± 2
298.15 K, x1 = 0.3971	817.3 ± 0.5	1.46214 ± 0.0011	1262 ± 2
298.15 K, x1 = 0.4963	808 ± 0.6	1.4548 ± 0.0011	1252 ± 2
298.15 K, x1 = 0.5987	798.8 ± 0.6	1.44757 ± 0.0011	1243 ± 2
298.15 K, x1 = 0.6966	789.9 ± 0.6	1.44052 ± 0.0011	1234 ± 2
298.15 K, x1 = 0.7958	781.6 ± 0.6	1.43389 ± 0.0011	1227 ± 2
298.15 K, x1 = 0.8922	773.4 ± 0.6	1.42739 ± 0.0011	1221 ± 2
298.15 K, x1 = 0.9501	768.9 ± 0.6	1.42377 ± 0.0011	1217 ± 2
298.15 K, x1 = 1	765 ± 0.6	1.42062 ± 0.001	1215 ± 2
313.15 K, x1 = 0.0506	838.4 ± 0.5	1.48121 ± 0.001	1242 ± 2
313.15 K, x1 = 0.1051	832.9 ± 0.5	1.4771 ± 0.0011	1234 ± 2
313.15 K, x1 = 0.204	823.1 ± 0.5	1.46914 ± 0.0011	1221 ± 2
313.15 K, x1 = 0.3096	812.6 ± 0.6	1.46083 ± 0.0011	1209 ± 2
313.15 K, x1 = 0.4064	803.4 ± 0.6	1.45361 ± 0.0011	1198 ± 2
313.15 K, x1 = 0.5061	794 ± 0.6	1.44635 ± 0.0011	1188 ± 2
313.15 K, x1 = 0.605	785.1 ± 0.6	1.43928 ± 0.0011	1179 ± 2
313.15 K, x1 = 0.7057	776.2 ± 0.6	1.43227 ± 0.0011	1170 ± 2
313.15 K, x1 = 0.8112	767.2 ± 0.6	1.42509 ± 0.0011	1162 ± 2
313.15 K, x1 = 0.9095	759 ± 0.6	1.41853 ± 0.0011	1155 ± 2
313.15 K, x1 = 0.9599	755 ± 0.6	1.41538 ± 0.0011	1152 ± 2
313.15 K, x1 = 1	751.9 ± 0.6	1.41274 ± 0.001	1150 ± 2

From the NIST ThermoML archive (doi:10.1021/je901020a)
